{"source": "patent US10434129B2", "about": "“Composition to enhance HDL cholesterol and to decrease intima-media thickening in animals and humans and a method for its preparation” (ARJUNA NATURAL LTD, priority 2003, dated 2019)", "origin": "cited, not measured here", "key": {"[1]": {"tested_on": "Human umbilical vein endothelial cells (HUVEC)", "details": "HUVEC incubated with ox-LDL"}, "[2]": {"tested_on": "rat vascular smooth muscle cells (VSMC)"}}}
{"smiles": "O=C(O[C@@H]1O[C@@H]2COC(=O)c3cc(O)c(O)c(O)c3-c3c(cc(O)c(O)c3O)C(=O)O[C@H]([C@H]1O)[C@@H]2O)c1cc(O)c(O)c(O)c1", "note": "[corilagin]", "values": [{"measurement": "Malondialdehyde (MDA) in the culture media", "setting": "[1]", "value": "reduce MDA"}, {"measurement": "adhesion of HUVEC to monocytes", "setting": "[1]; then monocytes", "value": "prevented HUVEC from adhering to monocytes"}, {"measurement": "VSMC proliferation induced by ox-LDL", "setting": "[2]", "value": "inhibited VSMC proliferation"}]}
